Experimental data reported in publication PMC9405973, “Altered Conformational Landscape upon Sensing Guanine Nucleotides in a Disease Mutant of Elongation Factor-like 1 (EFL1) GTPase” (Biomolecules, 2022).
Where “and” joins values, the source holds several entries; their conditions need not be identical. Identical values can stand only once.

Target: T1, Efl1 R1086Q (Saccharomyces cerevisiae, UniProt P53893, R1086Q)
T1 construct: made in house; host or cells: Saccharomyces cerevisiae
Assay: Isothermal titration calorimetry (ITC): binding of guanine nucleotides or Sdo1 to Efl1 R1086Q
Details: for Kd / -TΔSb / ΔGb / ΔHb / ΔCpb: guanine nucleotide; for ΔCpb: from ΔHb at 25–35 °C
Protocol: All calorimetric measurements were carried out using MicroCal^TM iTC200 System (GE Healthcare, Northampton, MA, USA) in a temperature range of 25–35 °C. Experiments were performed in a buffer consisting of 50 mM Tris-HCl (pH 8.0), 150 mM NaCl, 100 µM DTT, and 5% glycerol. In the titrations with Mg^2+-bound nucleotides, both the ligand and protein solutions contained 5 mM MgCl2. In the case of titrations with Mg^2+-free nucleotide, both the ligand and protein solutions were supplemented with 2 mM EDTA to sequester any residual trace of metal ions in solution. Protein samples and ligands were prepared in the exact same buffer prior to each titration. Protein concentration in the cell comprised 30–50 µM GTPase, while the ligand concentration in the syringe was 2–3 mM for GTP, MgGTP, GDP, and MgGDP. To ensure measuring the interaction of the complex Efl1 R1086Q•Sdo1 with the nucleotide, an eight-fold concentration excess of Sdo1 was used compared with that of the enzyme. […] The titration schedule consisted of 15–20 consecutive injections of the ligand with 5 min intervals between injections and a stirring rate of 700 rpm. The dilution heat of the ligand was obtained by adding the ligand to a buffer solution under identical conditions and with the same injection schedule used for the protein sample. All samples were degassed for 10 min prior to the experiment.
The binding isotherms obtained for the isolated GTPase in the presence of Mg(II) were analysed using a ternary model in which the protein can bind to the free nucleotide (G(D)TP) or that bound to one magnesium ion (MgG(D)TP); additionally, GTP may also exist in the form of Mg2GTP, which is not recognised by the protein. The derivation of this coupled-equilibria model can be reviewed in [6, 31]. The binding constant (Kb), the enthalpy change (∆Hb), and the stoichiometry (n) were obtained with the non-linear routines implemented in Origin 5.0 (OriginLab, Co., Northampton, MA, USA) using a one-binding-site model as described in [32, 33]. The heterotropic cooperativity for the binding of guanine nucleotides and Sdo1 to Efl1 R1086Q were calculated as previously described in [6, 32]. The cooperative effects of Mg(II) on the binding of guanine nucleotides to Efl1 R1086Q alone and bound to Sdo1 were calculated as follows:κ = KE-MG/KE-G κ = KES-MG/KES-G Δh = ΔHE-MG − ΔHE-G Δh = ΔHES-MG − ΔHES-G where subscripts E-MG and E-G stand for the association of the metal-bound and metal-free guanine nucleotide with mutant Efl1, respectively. Corresponding expressions applied to the heterotropic cooperativity of the binding of nucleotides to the preformed complex, Efl1•Sdo1 (ES).
The impact of Sdo1 on the binding of Efl1 R1086Q to guanine nucleotides in the presence of magnesium ions is contained in KES-MG and ΔHES-MG relative to the KE-S and ΔHE-S values; analogous ratios report the effects in the absence of Mg(II):κ = KES-MG/KE-S κ = KES-G/KE-G Δh = ΔHES-MG − ΔHE-S Δh = ΔHES-G − ΔHE-G
The corresponding cooperative entropy change was calculated as:TΔs = Δh − Δg = Δh + RTlnκ
The detailed methodology and equations to compute the changes in the accessible surface area (∆ASA) of the GTPase upon binding to nucleotides and the ∆S energetic-based parameters are reported in [6]. Briefly, the water-accessible areas (ASAs) were computed using programme NACCESS, while the changes in accessible surface area (ΔASA) upon the formation of each GTPase–nucleotide complex were estimated considering the difference between the complex and the sum of the free interacting partners. The calculated polar (ΔASAp) and apolar (ΔASAap) area changes were subsequently used to estimate the free molecular partners. […]

[1] = Effect of Mg^2+, Efl1 R1086Q − Sdo1, 25 °C
[2] = Effect of Mg^2+, Efl1 R1086Q − Sdo1, 30 °C
[3] = Effect of Mg^2+, Efl1 R1086Q − Sdo1, 35 °C
[4] = Effect of Sdo1, Efl1 R1086Q + Mg^2+, 25 °C
[5] = Effect of Sdo1, Efl1 R1086Q + Mg^2+, 30 °C
[6] = Effect of Sdo1, Efl1 R1086Q + Mg^2+, 35 °C
[7] = Effect of Sdo1, Efl1 R1086Q − Mg^2+, 25 °C
[8] = Effect of Sdo1, Efl1 R1086Q − Mg^2+, 30 °C
[9] = Effect of Sdo1, Efl1 R1086Q − Mg^2+, 35 °C

T1 sequence (P53893 whole entry R1086Q): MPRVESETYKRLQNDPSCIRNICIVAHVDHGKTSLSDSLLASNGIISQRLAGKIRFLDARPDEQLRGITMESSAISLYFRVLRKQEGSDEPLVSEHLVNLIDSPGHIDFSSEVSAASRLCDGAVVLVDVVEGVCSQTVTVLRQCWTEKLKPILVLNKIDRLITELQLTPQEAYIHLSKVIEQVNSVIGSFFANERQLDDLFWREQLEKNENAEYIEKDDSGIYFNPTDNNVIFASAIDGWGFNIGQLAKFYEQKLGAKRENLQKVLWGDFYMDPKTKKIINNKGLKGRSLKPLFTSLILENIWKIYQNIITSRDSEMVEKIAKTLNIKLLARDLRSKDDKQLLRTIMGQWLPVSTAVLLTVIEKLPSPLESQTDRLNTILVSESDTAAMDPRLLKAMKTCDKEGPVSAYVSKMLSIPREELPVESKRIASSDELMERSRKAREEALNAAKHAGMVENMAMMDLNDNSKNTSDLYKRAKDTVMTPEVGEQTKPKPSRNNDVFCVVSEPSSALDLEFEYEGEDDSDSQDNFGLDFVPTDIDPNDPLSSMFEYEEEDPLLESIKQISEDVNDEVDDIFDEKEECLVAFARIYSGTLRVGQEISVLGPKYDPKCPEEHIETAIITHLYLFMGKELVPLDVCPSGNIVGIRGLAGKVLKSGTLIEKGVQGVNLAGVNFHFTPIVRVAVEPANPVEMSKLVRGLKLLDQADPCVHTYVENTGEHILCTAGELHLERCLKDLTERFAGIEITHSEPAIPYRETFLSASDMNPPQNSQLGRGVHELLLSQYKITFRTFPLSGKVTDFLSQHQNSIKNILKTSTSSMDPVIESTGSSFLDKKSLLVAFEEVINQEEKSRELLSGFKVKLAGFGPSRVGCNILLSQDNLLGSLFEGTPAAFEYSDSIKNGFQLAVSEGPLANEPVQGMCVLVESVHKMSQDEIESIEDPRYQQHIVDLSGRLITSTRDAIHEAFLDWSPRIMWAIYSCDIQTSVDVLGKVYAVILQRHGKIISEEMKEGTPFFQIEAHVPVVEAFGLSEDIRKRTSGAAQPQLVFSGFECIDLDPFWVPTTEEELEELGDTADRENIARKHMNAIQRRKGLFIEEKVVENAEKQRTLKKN

Nc1nc2c(ncn2[C@@H]2O[C@H](COP(=O)(O)OP(=O)(O)O)[C@@H](O)[C@H]2O)c(=O)[nH]1 [GDP]
increase in binding enthalpy as temperature increased (25 °C to 35 °C): ~ 6 kcal mol^−1
Nconfres (number of residues changing conformation, absolute value) (+Mg^2+, 30 °C): 21
Nconfrotb (number of routable bonds changing conformation, absolute value) (+Mg^2+, 30 °C): 30
ΔCpconf (+Mg^2+, 30 °C): −222 cal mol^−1 K^−1
ΔSb (+Mg^2+, 30 °C): 7 cal mol^−1 K^−1
ΔSconf (+Mg^2+, 30 °C): −49 cal mol^−1 K^−1
ΔSsolv (+Mg^2+, 30 °C): 65 cal mol^−1 K^−1
−ΔASAconf (+Mg^2+, 30 °C): 996 Å^2
-TΔs [1]: -2.3 kcal/mol
Δg [1]: 1.3 kcal/mol
Δh [1]: 3.5 kcal/mol
κ (heterotropic cooperativity) [1]: 0.1
-TΔs [2]: -2.4 kcal/mol
Δg [2]: 1.2 kcal/mol
Δh [2]: 3.6 kcal/mol
κ (heterotropic cooperativity) [2]: 0.1
-TΔs [3]: -2.1 kcal/mol
Δg [3]: 1.2 kcal/mol
Δh [3]: 3.3 kcal/mol
κ (heterotropic cooperativity) [3]: 0.2
-TΔs [4]: -1.6 kcal/mol
Δg [4]: -0.6 kcal/mol
Δh [4]: 1.0 kcal/mol
κ (heterotropic cooperativity) [4]: 2.7
-TΔs [5]: -1.1 kcal/mol
Δg [5]: -0.8 kcal/mol
Δh [5]: 0.3 kcal/mol
κ (heterotropic cooperativity) [5]: 3.6
-TΔs [6]: -1.4 kcal/mol
Δg [6]: -0.9 kcal/mol
Δh [6]: 0.5 kcal/mol
κ (heterotropic cooperativity) [6]: 4.6
-TΔs [7]: -3.1 kcal/mol
Δg [7]: 1.06 kcal/mol
Δh [7]: 4.2 kcal/mol
κ (heterotropic cooperativity) [7]: 0.2
-TΔs [8]: -1.2 kcal/mol
Δg [8]: 1.2 kcal/mol
Δh [8]: 2.3 kcal/mol
κ (heterotropic cooperativity) [8]: 0.1
Δg [9]: 1.3 kcal/mol
Δh [9]: 1.2 kcal/mol
κ (heterotropic cooperativity) [9]: 0.1
Kd (+Mg^2+, 25 °C): 24 ± 3 µM
Kd (+Mg^2+, 30 °C): 28 ± 6 µM
Kd (+Mg^2+, 35 °C): 29 ± 8 µM
Kd (−Mg^2+, 25 °C): 3 ± 0.4 µM
Kd (−Mg^2+, 30 °C): 4 ± 0.6 µM
Kd (−Mg^2+, 35 °C): 4 ± 0.6 µM
-TΔSb (+Mg^2+, 25 °C): -3.19 kcal/mol
ΔGb (+Mg^2+, 25 °C): -6.29 kcal/mol
ΔHb (+Mg^2+, 25 °C): -3.1 ± 0.1 kcal/mol
-TΔSb (+Mg^2+, 30 °C): -2.20 kcal/mol
ΔGb (+Mg^2+, 30 °C): -6.30 kcal/mol
ΔHb (+Mg^2+, 30 °C): -4.1 ± 0.6 kcal/mol
-TΔSb (+Mg^2+, 35 °C): -0.59 kcal/mol
ΔGb (+Mg^2+, 35 °C): -6.39 kcal/mol
ΔHb (+Mg^2+, 35 °C): -5.8 ± 0.2 kcal/mol
ΔCpb (+Mg^2+): −270 ± 40 cal mol^−1 K^−1 and −270 cal mol^−1 K^−1
-TΔSb (−Mg^2+, 25 °C): -0.94 kcal/mol
ΔGb (−Mg^2+, 25 °C): -7.54 kcal/mol
ΔHb (−Mg^2+, 25 °C): -6.6 ± 0.2 kcal/mol
-TΔSb (−Mg^2+, 30 °C): 0.22 kcal/mol
ΔGb (−Mg^2+, 30 °C): -7.47 kcal/mol
ΔHb (−Mg^2+, 30 °C): -7.7 ± 0.3 kcal/mol
-TΔSb (−Mg^2+, 35 °C): 1.55 kcal/mol
ΔGb (−Mg^2+, 35 °C): -7.55 kcal/mol
ΔHb (−Mg^2+, 35 °C): -9.1 ± 0.3 kcal/mol
ΔCpb (−Mg^2+): −250 cal mol^−1 K^−1 and −250 ± 17 cal mol^−1 K^−1
surface buried by the conformational change (refers to Table 3, 30 °C): ~ 1000 Å
Nconfres (number of residues changing conformation, absolute value) (−Mg^2+, 30 °C): 21
ΔCpconf (−Mg^2+, 30 °C): −220 cal mol^−1 K^−1
ΔSb (−Mg^2+, 30 °C): −1 cal mol^−1 K^−1
ΔSconf (−Mg^2+, 30 °C): −53 cal mol^−1 K^−1
ΔSsolv (−Mg^2+, 30 °C): 60 cal mol^−1 K^−1
−ΔASAconf (−Mg^2+, 30 °C): 987 Å^2

Nc1nc2c(ncn2[C@@H]2O[C@H](COP(=O)(O)OP(=O)(O)OP(=O)(O)O)[C@@H](O)[C@H]2O)c(=O)[nH]1 [GTP]
Nconfres (number of residues changing conformation, absolute value) (+Mg^2+, 30 °C): 3
Nconfrotb (number of routable bonds changing conformation, absolute value) (+Mg^2+, 30 °C): 21
ΔCpconf (+Mg^2+, 30 °C): 35 cal mol^−1 K^−1
ΔSb (+Mg^2+, 30 °C): 25 cal mol^−1 K^−1
ΔSconf (+Mg^2+, 30 °C): 36 cal mol^−1 K^−1
ΔSsolv (+Mg^2+, 30 °C): −2 cal mol^−1 K^−1
−ΔASAconf (+Mg^2+, 30 °C): −157 Å^2
-TΔs [1]: 0.5 kcal/mol
Δg [1]: -0.1 kcal/mol
Δh [1]: -0.56 kcal/mol
κ (heterotropic cooperativity) [1]: 1.0
-TΔs [2]: 1.2 kcal/mol
Δg [2]: 0.6 kcal/mol
Δh [2]: -0.63 kcal/mol
κ (heterotropic cooperativity) [2]: 0.4
-TΔs [3]: 1.3 kcal/mol
Δg [3]: 0.5 kcal/mol
Δh [3]: -0.78 kcal/mol
κ (heterotropic cooperativity) [3]: 0.4
-TΔs [4]: 2.5 kcal/mol
Δg [4]: 0.3 kcal/mol
Δh [4]: -2.1 kcal/mol
κ (heterotropic cooperativity) [4]: 0.6
-TΔs [5]: 4.8 kcal/mol
Δg [5]: 0.7 kcal/mol
Δh [5]: -4.1 kcal/mol
κ (heterotropic cooperativity) [5]: 0.3
-TΔs [6]: 7.1 kcal/mol
Δg [6]: 0.9 kcal/mol
Δh [6]: -6.2 kcal/mol
κ (heterotropic cooperativity) [6]: 0.3
-TΔs [7]: 5.6 kcal/mol
Δg [7]: 0.0 kcal/mol
Δh [7]: -5.6 kcal/mol
κ (heterotropic cooperativity) [7]: 1.0
-TΔs [8]: 6.3 kcal/mol
Δg [8]: 0.7 kcal/mol
Δh [8]: -5.6 kcal/mol
κ (heterotropic cooperativity) [8]: 0.3
-TΔs [9]: 6.5 kcal/mol
Δg [9]: 0.9 kcal/mol
Δh [9]: -5.6 kcal/mol
κ (heterotropic cooperativity) [9]: 0.2
Kd (+Mg^2+, 25 °C): 16 ± 2 µM
Kd (+Mg^2+, 30 °C): 16 ± 3 µM
Kd (+Mg^2+, 35 °C): 13 ± 2 µM
Kd (−Mg^2+, 25 °C): 17 ± 5 µM
Kd (−Mg^2+, 30 °C): 6 ± 1 µM
Kd (−Mg^2+, 35 °C): 6 ± 1 µM
-TΔSb (+Mg^2+, 25 °C): -7.57 kcal/mol
ΔGb (+Mg^2+, 25 °C): -6.53 kcal/mol
ΔHb (+Mg^2+, 25 °C): 1.04 ± 0.05 kcal/mol
-TΔSb (+Mg^2+, 30 °C): -7.74 kcal/mol
ΔGb (+Mg^2+, 30 °C): -6.67 kcal/mol
ΔHb (+Mg^2+, 30 °C): 1.07 ± 0.03 kcal/mol
-TΔSb (+Mg^2+, 35 °C): -8.0 kcal/mol
ΔGb (+Mg^2+, 35 °C): -6.88 kcal/mol
ΔHb (+Mg^2+, 35 °C): 1.12 ± 0.06 kcal/mol
ΔCpb (+Mg^2+): 10 ± 2 cal mol^−1 K^−1 and 10 cal mol^−1 K^−1
-TΔSb (−Mg^2+, 25 °C): -8.12 kcal/mol
ΔGb (−Mg^2+, 25 °C): -6.52 kcal/mol
ΔHb (−Mg^2+, 25 °C): 1.6 ± 0.3 kcal/mol
-TΔSb (−Mg^2+, 30 °C): -8.90 kcal/mol
ΔGb (−Mg^2+, 30 °C): -7.20 kcal/mol
ΔHb (−Mg^2+, 30 °C): 1.7 ± 0.1 kcal/mol
-TΔSb (−Mg^2+, 35 °C): -9.30 kcal/mol
ΔGb (−Mg^2+, 35 °C): -7.40 kcal/mol
ΔHb (−Mg^2+, 35 °C): 1.9 ± 0.1 kcal/mol
ΔCpb (−Mg^2+): 30 cal mol^−1 K^−1 and 30 ± 6 cal mol^−1 K^−1
overall heat-capacity change to drive the protein into ternary complex GTPase•GTP•Sdo1 (mutant Efl1): −410 cal mol^−1 K^−1
Nconfres (number of residues changing conformation, absolute value) (−Mg^2+, 30 °C): 4
Nconfrotb (number of routable bonds changing conformation, absolute value) (−Mg^2+, 30 °C): 27
ΔCpconf (−Mg^2+, 30 °C): 41 cal mol^−1 K^−1
ΔSb (−Mg^2+, 30 °C): 29 cal mol^−1 K^−1
ΔSconf (−Mg^2+, 30 °C): 44 cal mol^−1 K^−1
ΔSsolv (−Mg^2+, 30 °C): −7 cal mol^−1 K^−1
−ΔASAconf (−Mg^2+, 30 °C): −184 Å^2
